In US8877161B2 (priority 2011, dated 2014):
Where two headings read alike, the source gives them in different places. Marks after values point to notes of the source that are not given here. Where a SMILES comes first, the peptide text is derived from it.

What was measured:
Type in all cases: binding
[1] = target: cholera toxin B subunit (CTB); ligand GM1 (Vibrio cholerae serotype O1, UniProt P01556)
[2] = target: cholera toxin B subunit (CTB); ligand fucosyl-GM1 (F-GM1) (Vibrio cholerae serotype O1, UniProt P01556)
Chain of cholera toxin B subunit (CTB); ligand fucosyl-GM1 (F-GM1) (P01556 22-124 limits assumed): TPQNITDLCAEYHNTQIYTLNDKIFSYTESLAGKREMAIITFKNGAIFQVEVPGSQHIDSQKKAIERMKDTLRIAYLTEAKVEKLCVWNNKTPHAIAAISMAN

[3] = target: cholera toxin B subunit (CTB); ligand LOSGM1 (Vibrio cholerae serotype O1, UniProt P01556)
Chain of cholera toxin B subunit (CTB); ligand LOSGM1 (P01556 22-124 limits assumed): as above

[4] = target: cholera toxin B subunit (CTB); ligand GD1b (Vibrio cholerae serotype O1, UniProt P01556)
Chain of cholera toxin B subunit (CTB); ligand GD1b (P01556 22-124 limits assumed): as above

[5] = target: cholera toxin B subunit (CTB); ligand Lipid AP (Vibrio cholerae serotype O1, UniProt P01556)
Chain of cholera toxin B subunit (CTB); ligand Lipid AP (P01556 22-124 limits assumed): as above

[6] = system: rabbit anti-GM1 antibodies (AbGM1); details: for IC50: AbGM1-1 lot # 431A; for Inhibition percent at IC50AbGM1-1: GM1/AbGM1-1 / Inhibition percent at IC50 AbGM1-1: AbGM1-3 / Inhibition percent at IC50 AbGM1-1: AbeGM1-4 / Inhibition percent at IC50 AbGM1-1: AbGM1-5 / Inhibition percent at IC50 AbGM1-1: AbGM1-1 / Inhibition percent at IC50 AbGM1-1: AbGM1-2: peptide at its IC50 AbGM1-1; for Inhibition percent at IC50AbGM1-1: GM1/AbGM1-1: lot # 431A; for Inhibition percent at IC50 AbGM1-1: AbGM1-3: antibody lot # 101J; for Inhibition percent at IC50 AbGM1-1: AbeGM1-4: antibody lot # 104H; for Inhibition percent at IC50 AbGM1-1: AbGM1-5: antibody lot # 105T; for Inhibition percent at IC50 AbGM1-1: AbGM1-1: antibody lot # 431A, means of 4 values; for Inhibition percent at IC50 AbGM1-1: AbGM1-2: antibody lot # 431B
[7] = system: AbGM2 (GM2/AbGM2); details: peptide at its IC50 AbGM1-1; lot # D710-2
[8] = system: AbGM4 (GM4/AbGM4); details: peptide at its IC50 AbGM1-1; lot # GMR6
[9] = system: AbGD1a (GD1a/AbGD1a); details: peptide at its IC50 AbGM1-1; lot # 109H
[10] = system: AbGD1b (GD1b/AbGD1b); details: peptide at its IC50 AbGM1-1; lot # D710-6
[11] = system: AbGD3 (GD3/AbGD3); details: peptide at its IC50 AbGM1-1; lot # R24
[12] = system: AbF-GM1 (F-GM1/AbF-GM1); details: peptide at its IC50 AbGM1-1; lot # G351
[13] = system: AbSGPG (SGPG/AbSGPG); details: peptide at its IC50 AbGM1-1; lot # D710-5

Chain of cholera toxin B subunit (CTB); ligand GM1 (P01556 22-124 limits assumed): as above

Molecule	IC50 GM1 [1]	Inhibition percent at IC50 GM1: GM1 [1]	Inhibition percent at IC50 GM1: F-GM1 [2]	Inhibition percent at IC50 GM1: LOSGM1 [3]	Inhibition percent at IC50 GM1: GD1b [4]	IC50 ([6]; Table 4, dilution 1:500)	IC50 ([6]; Table 5)	Inhibition percent at IC50AbGM1-1: GM1/AbGM1-1 ([6]; Table 5)	Inhibition percent at IC50 AbGM1-1: AbGM1-3 ([6]; dilution 1:500)	Inhibition percent at IC50 AbGM1-1: AbeGM1-4 ([6]; dilution 1:500)	Inhibition percent at IC50 AbGM1-1: AbGM1-5 ([6]; dilution 1:500)	Inhibition percent at IC50 AbGM1-1: AbGM1-1 ([6]; dilution 1:500)	Inhibition percent at IC50 AbGM1-1: AbGM1-2 ([6]; dilution 1:500)	Inhibition percent at IC50AbGM1-1: GM2/AbGM2 [7]	Inhibition percent at IC50AbGM1-1: GM4/AbGM4 [8]	Inhibition percent at IC50AbGM1-1: GD1a/AbGD1a [9]	Inhibition percent at IC50AbGM1-1: GD1b/AbGD1b [10]	Inhibition percent at IC50AbGM1-1: GD3/AbGD3 [11]	Inhibition percent at IC50AbGM1-1: F-GM1/AbF-GM1 [12]	Inhibition percent at IC50AbGM1-1: SGPG/AbSGPG [13]	also measured
CC(C)C[C@H](NC(=O)[C@H](CCCCN)NC(=O)[C@@H](NC(=O)[C@H](Cc1ccccc1)NC(=O)[C@H](Cc1c[nH]c2ccccc12)NC(=O)[C@H](C)NC(=O)[C@@H]1CCCN1C(=O)[C@@H](N)Cc1ccccc1)[C@@H](C)O)C(=O)N[C@@H](Cc1ccc(O)cc1)C(=O)N1CCC[C@H]1C(=O)N[C@@H](CCCNC(=N)N)C(=O)N[C@H](C(=O)O)[C@@H](C)O [PGM1-4, FPAWFTKLYPRT] (H-FPAWFTKLYPRT-OH)	77.4 nM	50%	62.1%	51.1%	18.9%	175 nM	175 nM	50%	12.6%	33.9%	0%	50%	70.1%	0%	0%	0%	12.1%	0%	25.7%	0%	Inhibition percent at IC50 GM1: Lipid AP [5]: 0%
CC[C@H](C)[C@H](NC(=O)[C@@H](N)CCC(N)=O)C(=O)N[C@@H](CC(N)=O)C(=O)N[C@H](C(=O)N[C@@H](C)C(=O)N[C@@H](CCCCN)C(=O)N[C@@H](Cc1c[nH]c2ccccc12)C(=O)N[C@@H](Cc1c[nH]c2ccccc12)C(=O)N[C@@H](CCCCN)C(=O)N[C@H](C(=O)N[C@@H](Cc1c[nH]cn1)C(=O)N[C@@H](Cc1ccccc1)C(=O)O)[C@@H](C)O)[C@@H](C)O [PGM1-5, QINTAKWWKTHF] (H-QINTAKWWKTHF-OH)	34.4 nM	50%	52.1%	50.0%	39.8%	481 nM	481 nM	50%	12.1%	0%	32.9%	50%	0%	6.5%	0%	0%	0%	0%	0%	0%	Inhibition percent at IC50 GM1: Lipid AP [5]: 0%
DASKALRSSGMP [PGM1-6]	–	0%	–	–	–	293 nM	293 nM	50%	0%	55.1%	18.7%	50%	45.1%	0%	0%	0%	8.9%	0%	23.4%	0%	Inhibition percent: F-GM1 [2]: 0^d percent; Inhibition percent: LOSGM1 [3]: 0^d percent; Inhibition percent: GD1b [4]: 0^d percent; Inhibition percent: Lipid AP [5]: 0^d percent
